Test results: patent publication US20060014726A1, “Derivatives of cyclic1, 3- propanediol phosphate and their action in differentiation therapy” (priority 2002, published 2006)

Assays:
[1] = system: estrogen receptor-α (ER-α) in MCF-7 cells; assay: Western blot analysis of ER-α level in MCF-7 cells; format: cell-based, human; conditions: MCF-7 cells; for increase in the level of wild type ER-α receptor (MW 70,000): 1-100 μM 1,3cPP
Method: Turning to FIG. 1 there are shown Western blot analyses showing the effect of 1,3cPP on the expression level of ER-α. In the ER-α assay, MCF-7 cells were incubated with 1-100 μM 1,3cPP for up to 14 days. The analysis indicates a relative increase in the level of wild type ER-α receptor (MW 70,000) with either an increase in 1,3cPP concentration or time of incubation. On days 6 and 14, a nearly 2-fold and 3-fold increase were observed, respectively (FIGS. 1A, C, D, F). […] This band could be related to one of deleted exons D3-4 (MW 49,000), D4 (MW 54,000), or D7 (MW 51,000) ER-α variants.
(§1) Breast Cancer Cells. The human breast cancer MCF-7 cell line were obtained from Prof. Hadassa Degani, of Weizmann Institute of Science, Rehovot, Israel. The cells were grown as monolayers in high glucose DMEM supplemented with 6% fetal calf serum and combined antibiotics. Human breast cancer T47D cells, clones 8 (ER^loPR^lo) and 11 (ER^+PR^+) were obtained from Prof Iafa Keydar, Tel-Aviv university and were grown in DMEM supplemented with 10% fetakl calf serum antibiotics. K562 erythroleukemia cells were obtained from Dr. Alfa Peled of Weizmann Institute of Science, Rehovot, Israel. These cells were grown in RPMI 1640 containing 10% fetal calf serum and antibiotics. All lines were grown at 37° C. in the presence of 5% CO2. The absence of Mycoplasma contamination was monitored by a Mycotrim TC test (Irvine Scientific, Santa Ana, Calif.) carried out once every 3 months.
For ER-α protein analysis, MCF-7 and T47D cells were cultured in 60×15 mm petri dishes. From the second day of culture onward, the cells were treated with various concentrations of 1,3cPP for up to 14 days. At the end of the incubation period, the medium was aspirated and the cells were washed 3 times with cold (4° C.) PBS. The cells were then gently scraped off using a rubber policeman in 0.25 ml of lysis buffer composed of 50 mM β-glycerophosphate, 1 mM DTT, 1.5 mM EGTA, 1 mM EDTA, 1% (Octylphenoxy)polyethoxyethanol (IGEPAL, Sigma, St. Louis, Mo.), a nonionic detergent, and a cocktail of protease inhibitors, including 1 mM phenylmethylsulfonyl fluoride (PMSF), 1 mM benzamidine, 10 μg/ml aprotinin, 10 μg/ml leupeptin, and 2 μg/ml pepstanin, as well as 1 mM sodium orthovanadate (Sigma, St. Louis, Mo.) as a phosphatase inhibitor. […] The protein concentration in each sample (1.5-4 mg/ml) was determined using the Coomassie Protein Assay (Pierce, Rockford, Ill.) according to the manufacturer's instructions. […] Bound antibodies were detected by horseradish peroxidase-conjugated goat anti-rabbit IgG, (Transduction Laboratories, Lexington, Ky. using the ECL detection method. Band densities were quantified by densitometry (Biorad model GS-690 Imaging densitometer) using Molecular Analyst software.

[2] = system: progesterone receptor (PR) in MCF-7 cells; assay: Western blot analysis of PR level in MCF-7 cells; format: cell-based, human; conditions: MCF-7 cells, from 10 μM upwards
Method: In an analogous manner, a set of experiments was preformed with MCF-7 cells for determining the level of PR upon incubation with varying concentrations of 1,3-cPP for a period of up to 11 days. Similar to the augmentation observed for ER-α, an increase of up to 2.8 and 2.2 fold expression of the wild type PR (MW 98,000), was observed from 10 μM 1,3-cPP and upwards on days 8 and 11, respecively (FIGS. 3A-D).
as §1
For ER-α protein analysis, MCF-7 and T47D cells were cultured in 60×15 mm petri dishes. From the second day of culture onward, the cells were treated with various concentrations of 1,3cPP for up to 14 days. At the end of the incubation period, the medium was aspirated and the cells were washed 3 times with cold (4° C.) PBS. […] The protein concentration in each sample (1.5-4 mg/ml) was determined using the Coomassie Protein Assay (Pierce, Rockford, Ill.) according to the manufacturer's instructions. […] Bound antibodies were detected by horseradish peroxidase-conjugated goat anti-rabbit IgG, (Transduction Laboratories, Lexington, Ky. using the ECL detection method. Band densities were quantified by densitometry (Biorad model GS-690 Imaging densitometer) using Molecular Analyst software.

## O=P1(O)OCCCO1 [1,3-cPP, 1,3-cyclic propanediol phosphate]
[1]; day 6, Western blot densitometry
  increase in the level of wild type ER-α receptor (MW 70,000): ~2 fold
[1]; day 14, Western blot densitometry
  increase in the level of wild type ER-α receptor (MW 70,000): ~3 fold
[1]; day 11, Western blot
  increase in the intensity of a ER variant with an approximate MW of 50,000: 5 fold
[2]; day 8
  increase in expression of the wild type PR (MW 98,000): up to 2.8 fold
[2]; day 11
  increase in expression of the wild type PR (MW 98,000): ≤ 2.2 fold
